Test results from US10023708B2, “Method of producing a delivery device” (PTT HOLDING APS, priority 2011, dated 2018).

Tests used:
[1] = Release of miconazole nitrate from loaded IPN discs versus PDMS discs; type: physicochemical; settings: 75° C., 2 hours
Protocol: a) 10 PDMS (Polydimethylsiloxane) (silpuran 6000/40 supplied by Wacker) discs within the same mass range were used per high pressure vessel for loading drug into PDMS. […] The reactors were then coupled to a scCO2 system. scCO2 was applied at 350 bars until the pressure inside the reactors also reached 350 bars. The pressure remained at 350 bars throughout the procedure. The reaction was left for equilibration for 2 hours. d) The pressure was released, and the discs loaded with miconazole nitrate were gently cleaned with ethanol, and stored protected from light. a) 10 PDMS (Polydimethylsiloxane) discs within the same mass range were used per high pressure vessel for loading drug into PDMS. […] The reactors were then coupled to a scCO2 system. scCO2 was applied at 350 bars until the pressure inside the reactors also reached 350 bars. This pressure was maintained throughout the procedure. The reaction was left for equilibration for 2 hours. d) The pressure was released, and the discs loaded with miconazole nitrate were gently cleaned with ethanol, and stored protected from light.

[2] = Loading of Ceragenin CSA-13 into IPN discs and its release; settings: IPN discs about 20% PHEMA loaded in EtOH + CO2
Protocol: 6 IPN discs (010 mm, thickness 1-2 mm) obtained from Example 1 and with about 20% PHEMA (total mass about 1.3266 g) was loaded with about 500 mg Ceragenin CSA-13. The loading solvent was 2.00 ml 99.8% EtOH supplied by Merck (Germany) and N48 CO2 (supplied by Air Liquid Denmark A/S (Denmark)). The Ceragenin CSA-13 was initially dissolved in the 2.00 ml 99.8% EtOH and injected into a reactor of 16 ml comprising the discs. The pressure was raised to about 300 bars by injecting CO2 and the temperature was raised to about 75° C. The discs were treated at this pressure and temperature under stirring (1100 rpm) for 21 hours and 50 minutes, where after the pressure was reduced, the discs were withdrawn and allowed to cool down.

[3] = Determination of work of adhesion Whc between chemical compound and second polymer; type: physicochemical
Text: (§1) The “work of adhesion” between two dissimilar materials is a measure of the energy required to separate the two dissimilar materials from each other. The work of adhesion is indicated with Wxy, wherein x and y respectively are the two dissimilar materials in question. Wxy is herein determined in joule per square meter of contact area of the x and y material to be separated (J/m^2). The contact area of the second polymer and the chemical component is proportional to the amount of a given chemical component and accordingly the Whc value could also be determined as J/mol chemical component. Work of adhesion (Whc) between the second polymer (h) and the chemical component (c) is determined according to the formula: Whc=γhn+γcn−γch, wherein γhn is the interfacial tension between h and n, γcn is the interfacial tension between c and n, and γch is the interfacial tension between c and h, where h=second polymer, n=normal saline and c=chemical component. The respective values of interfacial tension can be determined by any well known method or they can be calculated. Interfacial tensions can be determined from surface tensions of the individual compound, which can be measured or estimated from e.g. HSP which can be measured or estimated from group contribution calculations based on the chemical structure of the individual compound in question. […] At 1 bar and 25° C. the respective work of adhesion between sulfamethizole and the two polymers PDMS and PHEMA of the IPN of Example 1 was determined with respectively EtOH and water as loading solvents. Work of adhesion between sulfamethizole and the two polymers PDMS and PHEMA of the IPN of Example 1 was determined with varying volume fractions of EtOH in a loading solvent of EtOH and scCO2. The determination was determined at 300 bars and 75° C.

[4] = Release of sulfamethizole from loaded IPN discs soaked in phosphate buffer; type: physicochemical; settings: soaked in phosphate buffer solution at pH 4.5 over a period of about 14 days
Protocol: 2.5 g sulfamethizole (Unikem) was mixed with 60 ml sodium thiosulfate solution (12 ml 0.1 M was diluted to 60 ml using deionized water).
Drug loading was performed by placing 10 discs obtained from Example 1 in a 16 ml reactor. 2.00 ml of the above sulfamethizole mixture and 2.00 ml 99.8% EtOH supplied by Merck (Germany) was fed to the reactor. The discs were kept under stirring during the treatment time. The pressure in the reactor was initially raised to about 100 bars and with a temperature of about 44° C. Thereafter the temperature was raised to 75° C. and the pressure increased to 300 bars with CO2 (N48 CO2 supplied by Air Liquid Denmark A/S).

[5] = Determination of work of adhesion Wsc between chemical compound and first polymer; type: physicochemical
Text: as §1

[6] = 1 bar, 25° C., loading solvent EtOH
[7] = 1 bar, 25° C., loading solvent Water
[8] = 300 bars, 75° C., volume fractions EtOH 0.0000 / scCO2 1.0000
[9] = 300 bars, 75° C., volume fractions EtOH 0.0625 / scCO2 0.9375
[10] = 300 bars, 75° C., volume fractions EtOH 0.1250 / scCO2 0.8750
[11] = 300 bars, 75° C., volume fractions EtOH 0.1875 / scCO2 0.8125
[12] = 300 bars, 75° C., volume fractions EtOH 0.2500 / scCO2 0.7500
[13] = 300 bars, 75° C., volume fractions EtOH 0.3125 / scCO2 0.6875
[14] = 300 bars, 75° C., volume fractions EtOH 0.3750 / scCO2 0.6250
[15] = 300 bars, 75° C., volume fractions EtOH 0.4375 / scCO2 0.5625
[16] = 300 bars, 75° C., volume fractions EtOH 0.5000 / scCO2 0.5000
[17] = 300 bars, 75° C., volume fractions EtOH 0.5625 / scCO2 0.4375
[18] = 300 bars, 75° C., volume fractions EtOH 0.6250 / scCO2 0.3750
[19] = 300 bars, 75° C., volume fractions EtOH 0.6875 / scCO2 0.3125
[20] = 300 bars, 75° C., volume fractions EtOH 0.7500 / scCO2 0.2500
[21] = 300 bars, 75° C., volume fractions EtOH 0.8125 / scCO2 0.1875
[22] = 300 bars, 75° C., volume fractions EtOH 0.8750 / scCO2 0.1250
[23] = 300 bars, 75° C., volume fractions EtOH 0.9375 / scCO2 0.0625
[24] = 300 bars, 75° C., volume fractions EtOH 1.0000 / scCO2 0.0000

Compound: Clc1ccc(COC(Cn2ccnc2)c2ccc(Cl)cc2Cl)c(Cl)c1 (stereo not drawn) [miconazole nitrate]
- amount releasable from the IPN discs compared with the PDMS discs ([1]; Test 1: loaded using scCO2, 350 bars): much higher
- amount releasable from the IPN discs compared with the PDMS discs ([1]; Test 2: loaded using scCO2 and methanol, 350 bars): much higher

Compound: CCCCCCCCNCCC[C@@H](C)[C@H]1CC[C@H]2[C@@H]3[C@H](OCCCN)C[C@@H]4C[C@H](OCCCN)CC[C@]4(C)[C@H]3C[C@H](OCCCN)[C@]12C [Ceragenin CSA-13]
- release from the delivery device, microbiological effect [2]: can be released in sufficient amounts to provide a significant microbiological effect

Compound: Cc1nnc(NS(=O)(=O)c2ccc(N)cc2)s1 [sulfamethizole]
- Work of adhesion Whc h = PHEMA c = sulfamethizole [3, 6]: 3.8908 J/m^2
- Work of adhesion Whc h = PHEMA c = sulfamethizole [3, 7]: 38.3326 J/m^2
- Work of adhesion Whc h = PHEMA c = sulfamethizole [3, 8]: 29.8588 J/m^2
- Work of adhesion Whc h = PHEMA c = sulfamethizole [3, 9]: 25.3418 J/m^2
- Work of adhesion Whc h = PHEMA c = sulfamethizole [3, 10]: 21.2182 J/m^2
- Work of adhesion Whc h = PHEMA c = sulfamethizole [3, 11]: 17.4885 J/m^2
- Work of adhesion Whc h = PHEMA c = sulfamethizole [3, 12]: 14.1531 J/m^2
- Work of adhesion Whc h = PHEMA c = sulfamethizole [3, 13]: 11.2126 J/m^2
- Work of adhesion Whc h = PHEMA c = sulfamethizole [3, 14]: 8.6675 J/m^2
- Work of adhesion Whc h = PHEMA c = sulfamethizole [3, 15]: 6.5181 J/m^2
- Work of adhesion Whc h = PHEMA c = sulfamethizole [3, 16]: 4.7652 J/m^2
- Work of adhesion Whc h = PHEMA c = sulfamethizole [3, 17]: 3.4091 J/m^2
- Work of adhesion Whc h = PHEMA c = sulfamethizole [3, 18]: 2.4503 J/m^2
- Work of adhesion Whc h = PHEMA c = sulfamethizole [3, 19]: 1.8894 J/m^2
- Work of adhesion Whc h = PHEMA c = sulfamethizole [3, 20]: 1.7267 J/m^2
- Work of adhesion Whc h = PHEMA c = sulfamethizole [3, 21]: 1.9629 J/m^2
- Work of adhesion Whc h = PHEMA c = sulfamethizole [3, 22]: 2.5985 J/m^2
- Work of adhesion Whc h = PHEMA c = sulfamethizole [3, 23]: 3.6338 J/m^2
- Work of adhesion Whc h = PHEMA c = sulfamethizole [3, 24]: 5.0694 J/m^2
- amount of loaded compound released from the discs [4]: the major amount
- Work of adhesion Wsc s = PDMS c = sulfamethizole [5, 6]: 6.3434 J/m^2
- Work of adhesion Wsc s = PDMS c = sulfamethizole [5, 7]: 57.7309 J/m^2
- Work of adhesion Wsc s = PDMS c = sulfamethizole [5, 8]: 14.1969 J/m^2
- Work of adhesion Wsc s = PDMS c = sulfamethizole [5, 9]: 11.2585 J/m^2
- Work of adhesion Wsc s = PDMS c = sulfamethizole [5, 10]: 8.714 J/m^2
- Work of adhesion Wsc s = PDMS c = sulfamethizole [5, 11]: 6.5641 J/m^2
- Work of adhesion Wsc s = PDMS c = sulfamethizole [5, 12]: 4.8092 J/m^2
- Work of adhesion Wsc s = PDMS c = sulfamethizole [5, 13]: 3.4498 J/m^2
- Work of adhesion Wsc s = PDMS c = sulfamethizole [5, 14]: 2.4864 J/m^2
- Work of adhesion Wsc s = PDMS c = sulfamethizole [5, 15]: 1.9195 J/m^2
- Work of adhesion Wsc s = PDMS c = sulfamethizole [5, 16]: 1.7497 J/m^2
- Work of adhesion Wsc s = PDMS c = sulfamethizole [5, 17]: 1.9773 J/m^2
- Work of adhesion Wsc s = PDMS c = sulfamethizole [5, 18]: 2.6029 J/m^2
- Work of adhesion Wsc s = PDMS c = sulfamethizole [5, 19]: 3.6271 J/m^2
- Work of adhesion Wsc s = PDMS c = sulfamethizole [5, 20]: 5.0502 J/m^2
- Work of adhesion Wsc s = PDMS c = sulfamethizole [5, 21]: 6.8727 J/m^2
- Work of adhesion Wsc s = PDMS c = sulfamethizole [5, 22]: 9.0953 J/m^2
- Work of adhesion Wsc s = PDMS c = sulfamethizole [5, 23]: 11.7183 J/m^2
- Work of adhesion Wsc s = PDMS c = sulfamethizole [5, 24]: 14.7422 J/m^2
